Data as given in patent publication US12110305B2, “Prodrugs of phosphonamide nucleotide analogues and their pharmaceutical use” (priority 2020, dated 2024).
Read-outs that look alike come from different tables or passages of the source.

Tested on: HIV-1 (IIIB)
Experiment: Antiviral (HIV) assay in MT-4 cells
Type: cell-based
Details: HIV-1 IIIB in MT-4 cells, 5 days incubation, Cell Titer Glo, average of at least two independent experiments
Description: Example 104: Antiviral (HIV) Assay in MT-4 Cells
Compounds were tested in a high-throughput 384-well assay format for their ability to inhibit the replication of HIV-1 (IIIB) in MT-4 cells. Compounds were serially diluted (1:3) in DMSO on 384-well polypropylene plates and further diluted 200-fold into complete RPMI media (10% FBS, 1% P/S) using the Biotek Micro Flow and Labcyte ECHO acoustic dispenser. Each plate contained up to 8 test compounds, with negative (no drug) and positive (5 μM AZT) controls. MT-4 cells were pre-treated with 10 μL of either RPMI (mock-infected) or a fresh 1:250 dilution of HIV-1 IIIB concentrated virus stock. Infected and uninfected MT-4 cells were further diluted in complete RPMI media and added to each plate using a Micro Flow dispenser. After 5 days incubation in a humidified and temperature-controlled incubator (37° C.), Cell Titer Glo (Promega) was added to the assay plates and chemiluminescence read using an Envision plate-reader. EC50 values were defined as the compound concentration that causes a 50% decrease in luminescence signal and were calculated using a sigmoidal dose-response model to generate curve fits and are shown in Table 1.

[1] = Human immunodeficiency virus 1, MT4, 120 h

| SMILES | EC50 [1] | EC50 (read-out: MT4 HIV EC50) |
| --- | --- | --- |
| C[C@H](Cn1cnc2c(N)ncnc21)OCP(=O)(NC(C)(C)C(=O)OCC1CCC1)NC(C)(C)C(=O)OCC1CCC1 [Example 37, Bis(cyclobutylmethyl) 2,2′-(((((1-(6-amino-9H-purin-9-yl)propan-2-yl)oxy)methyl)phosphoryl)bis(azanediyl))(R)-bis(2-methylpropanoate)] | 4 nM | – |
| C[C@H](Cn1cnc2c(N)ncnc21)OCP(=O)(NC(C)(C)C(=O)OC1CCCC1)NC(C)(C)C(=O)OC1CCCC1 [Example 34, Dicyclopentyl 2,2′-(((((1-(6-amino-9H-purin-9-yl)propan-2-yl)oxy)methyl)phosphoryl)bis(azanediyl))(R)-bis(2-methylpropanoate)] | 3 nM | – |
| CCCOC(=O)C(C)(C)NP(=O)(CO[C@H](C)Cn1cnc2c(N)ncnc21)NC(C)(C)C(=O)OCCC [Example 36, Dipropyl 2,2′-(((((1-(6-amino-9H-purin-9-yl)propan-2-yl)oxy)methyl)phosphoryl)bis(azanediyl))(R)-bis(2-methylpropanoate)] | 14 nM | – |
| CCCCCCOC(=O)C(C)(C)NP(=O)(CO[C@H](C)Cn1cnc2c(N)ncnc21)NC(C)(C)C(=O)O[C@H]1CC[C@H](C(F)(F)F)CC1 (stereo partly drawn) [Example 22, Hexyl 2-((((((R)-1-(6-amino-9H-purin-9-yl)propan-2-yl)oxy)methyl)((2-methyl-1-oxo-1-((trans-4-(trifluoromethyl)cyclohexyl)oxy)propan-2-yl)amino)phosphoryl)amino)-2-methylpropanoate] | 9 nM | – |
| CCCCCCOC(=O)C(C)(C)NP(=O)(CO[C@H](C)Cn1cnc2c(N)ncnc21)NC(C)(C)C(=O)OCCCCCC [Example 1, Dihexyl 2,2′-(((((1-(6-amino-9H-purin-9-yl)propan-2-yl)oxy)methyl)phosphoryl)bis(azanediyl))(R)-bis(2-methylpropanoate)] | 5 nM | – |
| C[C@H](Cn1cnc2c(N)ncnc21)OCP(=O)(NC(C)(C)C(=O)O[C@H]1CC[C@H](C(F)(F)F)CC1)NC(C)(C)C(=O)O[C@H]1CC[C@H](C(F)(F)F)CC1 [Example 21, Bis(trans-4-(trifluoromethyl)cyclohexyl) 2,2′-((((((R)-1-(6-amino-9H-purin-9-yl)propan-2-yl)oxy)methyl)phosphoryl)bis(azanediyl))bis(2-methylpropanoate)] | 7 nM | – |
| CCCCCCOC(=O)[C@](C)(CC)NP(=O)(CO[C@H](C)Cn1cnc2c(N)ncnc21)N[C@@](C)(CC)C(=O)OCCCCCC [Example 10, Dihexyl 2,2′-((((((R)-1-(6-amino-9H-purin-9-yl)propan-2-yl)oxy)methyl)phosphoryl)bis(azanediyl))(2S,2'S)-bis(2-methylbutanoate)] | 37 nM | – |
| CCC(CC)COC(=O)C(C)(C)N[P@](=O)(CO[C@H](C)Cn1cnc2c(N)ncnc21)NC1(C(=O)OCC(CC)CC)CC1 [Example 71, 2-Ethylbutyl 1-(((R)-((((R)-1-(6-amino-9H-purin-9-yl)propan-2-yl)oxy)methyl)((1-(2-ethylbutoxy)-2-methyl-1-oxopropan-2-l)amino)phosphoryl)amino)cyclopropane-1-carboxylate] | – | 233 nM |
| C[C@H](Cn1cnc2c(N)ncnc21)OCP(=O)(NC(C)(C)C(=O)OCCC(C)(C)C)NC(C)(C)C(=O)OCCC(C)(C)C [Example 8, Bis(3,3-dimethylbutyl) 2,2′-(((((1-(6-amino-9H-purin-9-yl)propan-2-yl)oxy)methyl)phosphoryl)bis(azanediyl))(R)-bis(2-methylpropanoate)] | 5 nM | – |
| CCCCCOC(=O)C(C)(C)NP(=O)(CO[C@H](C)Cn1cnc2c(N)ncnc21)NC(C)(C)C(=O)OCCCCC [Example 4, Dipentyl 2,2′-(((((1-(6-amino-9H-purin-9-yl)propan-2-yl)oxy)methyl)phosphoryl)bis(azanediyl))(R)-bis(2-methylpropanoate)] | 6 nM | – |
| CCCCCCOC(=O)C(C)(C)NP(=O)(CO[C@H](C)Cn1cnc2c(NC(C)=O)ncnc21)NC(C)(C)C(=O)OCCCCCC [Example 28, Dihexyl 2,2′-(((((1-(6-acetamido-9H-purin-9-yl)propan-2-yl)oxy)methyl)phosphoryl)bis(azanediyl))(R)-bis(2-methylpropanoate)] | 65 nM | – |

Now from value to compound, other results behind:

| EC50 [1] | SMILES | EC50 (read-out: MT4 HIV EC50) |
| --- | --- | --- |
| 8 nM | C[C@H](Cn1cnc2c(N)ncnc21)OCP(=O)(NC(C)(C)C(=O)O[C@H]1C[C@H](C(C)(C)C)C1)NC(C)(C)C(=O)O[C@H]1C[C@H](C(C)(C)C)C1 [Example 52, Bis((1R,3R)-3-(tert-butyl)cyclobutyl) 2,2′-((((((R)-1-(6-amino-9H-purin-9-yl)propan-2-yl)oxy)methyl)phosphoryl)bis(azanediyl))bis(2-methylpropanoate)] | – |
| 6 nM | C[C@H](Cn1cnc2c(N)ncnc21)OCP(=O)(NC(C)(C)C(=O)OCC12CCC(CC1)CC2)NC(C)(C)C(=O)OCC12CCC(CC1)CC2 [Example 48, Bis(bicyclo[2.2.2]octan-1-ylmethyl) 2,2′-(((((1-(6-amino-9H-purin-9-yl)propan-2-yl)oxy)methyl)phosphoryl)bis(azanediyl))(R)-bis(2-methylpropanoate)] | – |
| 47 nM | C[C@H](Cn1cnc2c(N)ncnc21)OCP(=O)(NC(C)(C)C(=O)OCC12CC3CC(CC(C3)C1)C2)NC(C)(C)C(=O)OCC12CC3CC(CC(C3)C1)C2 [Example 59, Bis(((1S,3S)-adamantan-1-yl)methyl) 2,2′-((((((R)-1-(6-amino-9H-purin-9-yl)propan-2-yl)oxy)methyl)phosphoryl)bis(azanediyl))bis(2-methylpropanoate)] | – |
| 91 nM | CCCCCCOC(=O)C(C)(C)NP(=O)(CO[C@H](C)Cn1cnc2c(NC(=O)CCCC(=O)OCc3oc(=O)oc3C)ncnc21)NC(C)(C)C(=O)OCCCCCC [Example 99, (5-Methyl-2-oxo-1,3-dioxol-4-yl)methyl 5-[[9-[(2R)-2-[bis[(2-hexoxy-1,1-dimethyl-2-oxo-ethyl)amino]phosphorylmethoxy]propyl]purin-6-yl]amino]-5-oxo-pentanoate] | – |
| 10 nM | CCCCOC(=O)C(C)(C)NP(=O)(CO[C@H](C)Cn1cnc2c(N)ncnc21)NC(C)(C)C(=O)OCCCC [Example 38, Dibutyl 2,2′-(((((1-(6-amino-9H-purin-9-yl)propan-2-yl)oxy)methyl)phosphoryl)bis(azanediyl))(R)-bis(2-methylpropanoate)] | – |
| 5 nM | C[C@H](Cn1cnc2c(N)ncnc21)OCP(=O)(NC(C)(C)C(=O)OCC1CCCCC1)NC(C)(C)C(=O)OCC1CCCCC1 [Example 46, Bis(cyclohexylmethyl) 2,2′-(((((1-(6-amino-9H-purin-9-yl)propan-2-yl)oxy)methyl)phosphoryl)bis(azanediyl))(R)-bis(2-methylpropanoate)] | – |
| 5 nM | C[C@H](Cn1cnc2c(N)ncnc21)OCP(=O)(NC(C)(C)C(=O)OCC1CC2(C1)CC(F)(F)C2)NC(C)(C)C(=O)OCC1CC2(C1)CC(F)(F)C2 [Example 58, Bis((6,6-difluorospiro[3.3]heptan-2-yl)methyl) 2,2′-(((((1-(6-amino-9H-purin-9-yl)propan-2-yl)oxy)methyl)phosphoryl)bis(azanediyl))(R)-bis(2-methylpropanoate)] | – |
| 11 nM | CCCCCCOC(=O)C(C)(C)NP(=O)(CO[C@H](C)Cn1cnc2c(NC(=O)[C@H]3CCC(=O)O3)ncnc21)NC(C)(C)C(=O)OCCCCCC [Example 96, Dihexyl 2,2′-((((((R)-1-(6-((R)-5-oxotetrahydrofuran-2-carboxamido)-9H-purin-9-yl)propan-2-yl)oxy)methyl)phosphoryl)bis(azanediyl))bis(2-methylpropanoate)] | – |
| 229 nM | CCCCCCOC(=O)C(C)(C)NP(=O)(CO[C@H](C)Cn1cnc2/c(=N\Cc3oc(=O)oc3C)n(Cc3oc(=O)oc3C)cnc21)NC(C)(C)C(=O)OCCCCCC [Example 84, Dihexyl 2,2′-(((((1-(1-((5-methyl-2-oxo-1,3-dioxol-4-yl)methyl)-6-(((5-methyl-2-oxo-1,3-dioxol-4-yl)methyl)imino)-1,6-dihydro-9H-purin-9-yl)propan-2-yl)oxy)methyl)phosphoryl)bis(azanediyl))(R,E)-bis(2-methylpropanoate)] | – |
| 97 nM | C[C@H](Cn1cnc2c(N)ncnc21)OCP(=O)(NC(C)(C)C(=O)O[C@H]1CC[C@H](c2ccccc2)CC1)NC(C)(C)C(=O)O[C@H]1CC[C@H](c2ccccc2)CC1 [Example 93, Bis(trans-4-phenylcyclohexyl) 2,2′-((((((R)-1-(6-amino-9H-purin-9-yl)propan-2-yl)oxy)methyl)phosphoryl)bis(azanediyl))bis(2-methylpropanoate)] | – |
| 6 nM | C[C@H](Cn1cnc2c(N)ncnc21)OCP(=O)(NC(C)(C)C(=O)OCC1CCC2(CCC2)CC1)NC(C)(C)C(=O)OCC1CCC2(CCC2)CC1 (stereo partly drawn) [Example 53, Bis(spiro[3.5]nonan-7-ylmethyl) 2,2′-(((((1-(6-amino-9H-purin-9-yl)propan-2-yl)oxy)methyl)phosphoryl)bis(azanediyl))(R)-bis(2-methylpropanoate)] | – |
| 3 nM | C[C@H](Cn1cnc2c(N)ncnc21)OCP(=O)(NC(C)(C)C(=O)OCC1CCCC1)NC(C)(C)C(=O)OCC1CCCC1 [Example 45, Bis(cyclopentylmethyl) 2,2′-(((((1-(6-amino-9H-purin-9-yl)propan-2-yl)oxy)methyl)phosphoryl)bis(azanediyl))(R)-bis(2-methylpropanoate)] | – |
